Data on nine compounds can be found in patent US20150344485A1, “BICYCLIC PYRIMIDONE COMPOUNDS AS INHIBITORS OF LP-PLA2” (GLAXOSMITHKLINE INTELLECTUAL PROPERTY DEVELOPMENT LIMITED, priority 2013, published 2015).

Experiment [1] deals with experimental autoimmune encephalomyelitis (EAE). The experiment is described as follows: Rat experimental autoimmune encephalomyelitis (EAE) model, preventive treatment. Format: in vivo. The method, then: A further study was carried out to study the impact of Lp-PLA2 inhibitors on modulating M1/M2 imbalance. In this study, rats were induced to develop experimental autoimmune encephalomyelitis (EAE) by immunization with myelin basic protein (MBP) antigen and treated with a known Lp-PLA2 inhibitor: 5-((9-Methoxy-4-oxo-6,7-dihydro-4H-pyrimido[6,1-a]isoquinolin-2-yl)oxy)-2-(3-(trifluoromethyl)phenoxy)benzonitrile (See PCT application no. PCT/CN2011/001597). In this preventive treatment model, the compound was administered at day 0 (day of immunization) and continued to administer until day 22. The study lasted for 25 days. Rats were subsequently monitored for symptoms of EAE. Rats were immunized with MBP to develop EAE and symptoms were monitored daily. Plasma Lp-PLA2 activity, OxLDL, and LysoPC concentration were determined at different time points through the course of EAE.

Experiment [2] has as its system proinflammatory (M1) and anti-inflammatory (M2) markers. As to the kind of experiment: Ex vivo analysis of M1 and M2 markers in macrophages of EAE rats by realtime PCR. Details: species or system rat. Conditions: splenic macrophages day 13 post MBP-immunization and CNS infiltrating macrophages. The method, then:
Ex vivo analysis of proinflammatory (M1) and anti-inflammatory (M2) markers in control and compound treated EAE rats. Splenic macrophages were harvested at day 13 post MBP-immunization and assayed for expression of a variety of markers by realtime PCR. CNS infiltrating cells were harvested and macrophages were analyzed for expression of M1 and M2 markers by realtime PCR.

The target of experiment [3] is T1, Lp-PLA2 in human plasma (Homo sapiens, UniProt Q13093).
T1 construct: from tissue; host or cells: pooled human plasma
T1 sequence (Q13093 22-441): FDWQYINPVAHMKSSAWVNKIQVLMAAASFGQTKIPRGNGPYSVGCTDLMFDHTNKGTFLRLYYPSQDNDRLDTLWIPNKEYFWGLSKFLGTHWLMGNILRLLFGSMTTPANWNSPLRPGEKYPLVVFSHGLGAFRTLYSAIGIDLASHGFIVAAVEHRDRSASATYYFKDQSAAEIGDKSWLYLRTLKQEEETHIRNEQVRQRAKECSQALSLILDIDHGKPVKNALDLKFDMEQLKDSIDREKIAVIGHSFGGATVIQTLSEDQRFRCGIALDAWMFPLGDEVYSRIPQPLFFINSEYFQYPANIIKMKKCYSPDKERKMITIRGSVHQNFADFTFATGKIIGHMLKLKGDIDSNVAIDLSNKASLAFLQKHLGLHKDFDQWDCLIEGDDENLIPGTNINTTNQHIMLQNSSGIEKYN
The experiment is described as follows: Lp-PLA2 human plasma assay (Thio-PAF assay). Type of experiment: biochemical. Conditions: pooled human plasma; read-out: pIC50 values in the thio-PAF assay (converted). In a few lines: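 Pooled human plasma preincubated 30 min with compound, then 2-thio-PAF substrate added with CPM and NEM in 50 mM HEPES pH 7.4, 150 mM NaCl, 1 mM CHAPS. Quenched with TFA after 2 min, incubated 40 min at room temperature, and read by fluorescence at ex 380/em 485 nm. Values given as pIC50.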

Experiment [4] addresses T2, recombinant human Lp-PLA2 (Homo sapiens, UniProt Q13093).
T2 sequence (Q13093 22-441): T1 sequence (Q13093 22-441)
As to the kind of experiment: Recombinant human Lp-PLA2 assay (rhLp-PLA2, PED6 assay). Type of experiment: biochemical. In a few lines: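 Enzyme (4 nM or 110 pM, as stated for the 5 μL addition) preincubated 30 min with compound in 50 mM HEPES pH 7.4, 150 mM NaCl, 1 mM CHAPS, then PED6 substrate (4 or 5 μM in the addition) added. Fluorescence (ex 480/em 540) read after 20 min, room temperature; pIC50 from curve fitting.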

Setting [5] is: read-out: pIC50 values in the recombinant human Lp-PLA2 assay (converted).

Like-named read-outs stand apart in the source and are kept apart here. Where only a bound is given, the exact number is not on record here.

For the compound `COc1ccc2c(c1)CCn1c-2cc(Oc2ccc(Oc3cccc(C(F)(F)F)c3)c(C#N)c2)nc1=O` [5-((9-Methoxy-4-oxo-6,7-dihydro-4H-pyrimido[6,1-a]isoquinolin-2-yl)oxy)-2-(3-(trifluoromethyl)phenoxy)benzonitrile], in experiment [1] (rat EAE plasma), the “Lp-PLA2 activity in rat EAE plasma” value is “decreased” and the “LysoPC levels in rat EAE plasma” value is “decreased”. In experiment [1] (rat EAE, administered day 0 until day 22), the clinical disease result was “reduction in clinical disease”. For the same compound, in experiment [2], the M1 markers entry is recorded as “decrease” and the M2 markers result is “increase”.

Take `C[C@@H]1CCn2c(cc(OCc3ccc(Oc4ccc(C(F)(F)F)nc4)c(F)c3)nc2=O)N1C` [E145, (R)-8-((3-fluoro-4-((6-(trifluoromethyl)pyridin-3-yl)oxy)benzyl)oxy)-1,2-dimethyl-3,4-dihydro-1H-pyrimido[1,6-a]pyrimidin-6(2H)-one]: the IC50 in experiment [3] is not above 10 nM; in experiment [4] (setting [5]), not above 1 nM.

As to `C[C@H]1CCn2c(cc(OCc3cc(F)c(Oc4ccnc(C(F)(F)F)c4)c(F)c3)nc2=O)N1C` [E146, (S)-8-((3,5-difluoro-4-((2-(trifluoromethyl)pyridin-4-yl)oxy)benzyl)oxy)-1,2-dimethyl-3,4-dihydro-1H-pyrimido[1,6-a]pyrimidin-6(2H)-one], the results for the IC50 in experiment [3], in experiment [4] (setting [5]) and in experiment [4] (read-out: rhLp-PLA2 (PED6 assay) (pIC50) (converted)) were not above 10 nM, not above 1 nM and 0.0158 nM, respectively.

Consider `C[C@@H]1CCn2c(cc(OCc3ccc(Oc4ccnc(C(F)(F)F)c4)c(F)c3)nc2=O)N1C` [E147, (R)-8-((3-fluoro-4-((2-(trifluoromethyl)pyridin-4-yl)oxy)benzyl)oxy)-1,2-dimethyl-3,4-dihydro-1H-pyrimido[1,6-a]pyrimidin-6(2H)-one], for which the IC50 was not above 10 nM in experiment [3] and not above 1 nM in experiment [4] (setting [5]).

Turning to `C[C@@H]1CCn2c(cc(OCc3cc(F)c(Oc4cncc(C(F)(F)F)c4)c(F)c3)nc2=O)N1C` [E148, (R)-8-((3,5-difluoro-4-((5-(trifluoromethyl)pyridin-3-yl)oxy)benzyl)oxy)-1,2-dimethyl-3,4-dihydro-1H-pyrimido[1,6-a]pyrimidin-6(2H)-one], the IC50 is not above 10 nM in experiment [3] and not above 1 nM in experiment [4] (setting [5]).

Take `C[C@@H]1CCn2c(cc(OCc3ccc(Oc4cncc(C(F)(F)F)c4)c(F)c3)nc2=O)N1C` [E149, (R)-8-((3-fluoro-4-((5-(trifluoromethyl)pyridin-3-yl)oxy)benzyl)oxy)-1,2-dimethyl-3,4-dihydro-1H-pyrimido[1,6-a]pyrimidin-6(2H)-one]: the IC50 was not above 10 nM in experiment [3] and not above 1 nM in experiment [4] (setting [5]).

As to `C[C@H]1CCn2c(cc(OCc3cc(F)c(Oc4cncc(C(F)(F)F)c4)c(F)c3)nc2=O)N1C` [E150, (S)-8-((3,5-difluoro-4-((5-(trifluoromethyl)pyridin-3-yl)oxy)benzyl)oxy)-1,2-dimethyl-3,4-dihydro-1H-pyrimido[1,6-a]pyrimidin-6(2H)-one], the IC50 in experiment [3] is not above 10 nM; in experiment [4] (setting [5]) it was not above 1 nM.

Turning to `C[C@H]1CCn2c(cc(OCc3ccc(Oc4ccnc(C(F)(F)F)c4)c(F)c3)nc2=O)N1C` [E151, (S)-8-((3-fluoro-4-((2-(trifluoromethyl)pyridin-4-yl)oxy)benzyl)oxy)-1,2-dimethyl-3,4-dihydro-1H-pyrimido[1,6-a]pyrimidin-6(2H)-one], the results for the IC50 in experiment [3] and in experiment [4] (setting [5]) were not above 10 nM and not above 1 nM, respectively.

Consider `CN1c2cc(OCc3cc(F)c(Oc4ccnc(C(F)(F)F)c4)c(F)c3)nc(=O)n2CCC1(C)C` [E153], for which the IC50 in experiment [3] was not above 10 nM; in experiment [4] (setting [5]) it was not above 1 nM.
